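A five-concentration, 48-hour dose response in 96-well plates underlies each endpoint, interpolated linearly between surrounding concentrations. Abbreviation: GI50, concentration required for 50% inhibition of growth. Definition used: TGI = concentration required for complete inhibition of growth.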
How the values were obtained:
Test in all cases: NCI tumour cell line growth inhibition, 48 h
NCI-H460 lung = system: NCI-H460 lung
OVCAR-4 ovarian = system: OVCAR-4 ovarian
UACC-257 melanoma = system: UACC-257 melanoma
SK-MEL-28 melanoma = system: SK-MEL-28 melanoma
RPMI-8226 leukemia = system: RPMI-8226 leukemia
A549 NSCLC = system: A549 NSCLC
UO-31 renal = system: UO-31 renal
DU-145 prostate = system: DU-145 prostate
HS 578T breast = system: HS 578T breast
MDA-N = system: MDA-N

Compound	TGI (NCI-H460 lung) [µM]	TGI (OVCAR-4 ovarian) [µM]	TGI (UACC-257 melanoma) [µM]	TGI (SK-MEL-28 melanoma) [µM]	TGI (RPMI-8226 leukemia) [µM]	TGI (A549 NSCLC) [µM]	TGI (UO-31 renal) [µM]	TGI (DU-145 prostate) [µM]	TGI (HS 578T breast) [µM]	TGI (MDA-N) [µM]	GI50 (NCI-H460 lung) [µM]	GI50 (OVCAR-4 ovarian) [µM]	GI50 (RPMI-8226 leukemia) [µM]	GI50 (DU-145 prostate) [µM]	GI50 (UO-31 renal) [µM]	GI50 (HS 578T breast) [µM]
[N-]=[N+]=NC(c1cn(C2CC(O)C(CO)O2)c(=O)[nH]c1=O)C(I)I (stereo unspecified)	> 100	> 100	> 100	> 100	> 100	> 100	> 100									
Nc1ccc(S(=O)(=O)c2ccc(N=[N+]([O-])c3ccc(S(=O)(=O)c4ccc(N)cc4)cc3)cc2)cc1	> 100	> 62.6	> 100	> 100	> 100	> 100	> 100	> 100	> 74.7							
CC(=O)O[C@@H]1CC2[C@@H](CCC3Cc4nc5c(nc4C[C@@]32C)CC2CC[C@@H]3C(CC[C@@]4(C)C3CC[C@@H]4C(C)CCCC(C)C)[C@@]2(C)C5)C2C[C@@H]3OC4(CCC(C)CO4)C(C)[C@@H]3[C@]21C (stereo partly specified)	> 100	> 100	> 100	> 100	> 100	> 100		> 100	96.4	> 100						
N/C(=N\N=C/c1cc(Cl)cc(Cl)c1O)NO	14.2	20.9	29.3	44.7	39.9	36.5	13.7									
O=C(Cc1ccccc1)NN1C(=O)C(Cl)C1c1ccccc1 (stereo unspecified)	> 100	> 100	> 100	> 100	52.8	> 100	> 100									
CC[S+](C)c1ccc(-c2c3nc(c(-c4ccc([S+](C)CC)cc4)c4ccc([nH]4)c(-c4ccc([S+](C)CC)cc4)c4nc(c(-c5ccc([S+](C)CC)cc5)c5ccc2[nH]5)C=C4)C=C3)cc1 (stereo unspecified)	> 100	> 100	> 100	> 100	41	> 100										
CC(=O)C1C(=O)C(=O)N(c2ccc([N+](=O)[O-])cc2Cl)C1=O (stereo unspecified)	> 100	> 100	> 100	> 100		> 100	> 100	> 100	> 100	> 100						
OC(C1CCCC1=N/N=C1/CCCC1C(O)(C(F)(F)Cl)C(F)(F)Cl)(C(F)(F)Cl)C(F)(F)Cl (stereo unspecified)	> 10	> 10	> 10	> 10	> 10	> 10		> 10	> 10	> 10						
COC(=O)C[C@](O)(CCC(C)(C)O)C(=O)O[C@@H]1C(OC)=C[C@]23CCCN2CCc2cc4c(cc2[C@H]13)OCO4	0.0793	0.478	0.537	0.294	0.701	0.45	7.01									
COC(=O)Nc1nc2ccc(NS(=O)(=O)c3ccc(F)cc3)cc2[nH]1	> 100	> 100		> 100	81.2	> 100	> 100	> 100	9.66	7.45						
O=C(/C=C\c1ccc(OCCCCCC[P+](c2ccccc2)(c2ccccc2)c2ccccc2)cc1)c1ccc2c(c1)OCCO2	2.5	3.42			1.3		3.2	2.6	5.02		1.01	0.415	0.296	1.21	1.52	0.827

Reference: PubChem BioAssay (NCI)
